One block for each molecule: values may come before it.
Key:
human plasminogen = molecular target: T1, human plasminogen (Homo sapiens, UniProt P00747); assay: competitive solid-phase binding assay (ELISA), displacement of GAPDH; details: competition with 125 ng His-tagged bacterial GAPDH; EACA 1.25 to 10 mM; lysine analog
T1 construct: gene PLG; commercial (BioVision), 1 microgram coated on polystyrene plate

[1] = molecular target: T2, LGp40 (GAPDH of L. gasseri) (Lactobacillus gasseri, UniProt A0A1V3Y2M1); assay: X-ray crystallography, […] A; details: NAD-binding site, Asp38 hydrogen bonds; crystals at pH 6.5
T2 construct: gene gap; His6-tagged, pET21b, E. coli BL21(DE3), Ni-NTA then Q column; 37 kDa; tetramer through crystal symmetry

[2] = molecular target: LGp40, His-tagged recombinant glyceraldehyde-3-phosphate dehydrogenase (GAPDH) of Lactobacillus gasseri (Lactobacillus gasseri (BCRC14619)); assay: crystal structure; X-ray, 1.88 A, space group I4(1)22; one LGp40 copy in the asymmetric unit, tetramer through crystal symmetry; crystals from 0.1 M sodium cacodylate pH 6.5, 16% w/v PEG 4000, 25 C

T1 sequence (P00747 20-810): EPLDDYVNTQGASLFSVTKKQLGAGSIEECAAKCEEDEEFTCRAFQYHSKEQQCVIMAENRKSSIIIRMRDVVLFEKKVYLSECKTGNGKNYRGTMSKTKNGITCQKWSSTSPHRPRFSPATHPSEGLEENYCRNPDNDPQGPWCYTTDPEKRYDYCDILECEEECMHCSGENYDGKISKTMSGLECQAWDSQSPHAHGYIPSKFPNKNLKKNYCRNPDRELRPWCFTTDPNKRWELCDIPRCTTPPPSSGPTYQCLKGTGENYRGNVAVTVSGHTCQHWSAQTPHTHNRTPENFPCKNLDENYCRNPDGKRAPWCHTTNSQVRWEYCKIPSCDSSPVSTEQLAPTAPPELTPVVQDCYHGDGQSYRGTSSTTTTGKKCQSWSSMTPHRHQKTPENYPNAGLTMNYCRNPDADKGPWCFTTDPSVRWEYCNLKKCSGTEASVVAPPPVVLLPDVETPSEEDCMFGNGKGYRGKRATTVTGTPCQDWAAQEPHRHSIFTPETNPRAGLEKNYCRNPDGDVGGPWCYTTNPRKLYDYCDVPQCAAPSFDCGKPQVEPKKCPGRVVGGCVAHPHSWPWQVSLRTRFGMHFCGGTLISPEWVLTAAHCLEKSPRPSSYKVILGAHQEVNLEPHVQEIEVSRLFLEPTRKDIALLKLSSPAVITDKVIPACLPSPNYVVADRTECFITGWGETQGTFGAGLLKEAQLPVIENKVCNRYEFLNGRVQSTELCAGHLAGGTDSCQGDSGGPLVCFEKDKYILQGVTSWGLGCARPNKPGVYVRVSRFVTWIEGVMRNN

Molecule: NCCCCCC(=O)O [EACA]
- competitive solid-phase binding assay (ELISA), displacement of GAPDH (human plasminogen): a competitive binding assay using EACA, a lysine analog

Molecule: NC(=O)c1ccc[n+]([C@@H]2O[C@H](COP(=O)(O)OP(=O)(O)OC[C@H]3O[C@@H](n4cnc5c(N)ncnc54)[C@H](O)[C@@H]3O)[C@@H](O)[C@H]2O)c1 [NAD^+]
- X-ray crystallography, 1.88 A [1]: contributes two hydrogen-bond interactions with NAD^+ to provide stronger binding forces

- stoichiometry N [2]: 4
Molecule: LGp40, His-tagged recombinant glyceraldehyde-3-phosphate dehydrogenase (GAPDH) of Lactobacillus gasseri (enzyme)
